“Also recorded” adds a separate entry of the source.
What was measured:
[1] = Hygroscopicity (DVS) of Polymorph Form A; assay type: physicochemical
Experimental: Details of DVS method used in the tests are summarized below: • Test the sorption/desorption profile of testing compound at 25° C. under 0-90% relative humidity. 3.3 HPLC Method
About 10 mg Polymorph Form A was weighed and the sorption/desorption profiles were set at 25° C. under 0-90% relative humidity. The compound after testing was also subjected to an XRPD test to determine if any polymorph changes exist after exposure to a cycle of humidity change.

[2] = Photostability / solid stability under light (5000 lux); assay type: physicochemical
Experimental: Photostability testing was conducted on Polymorph Form A at 1- and 2-week intervals under light conditions of 5000 lux with the sample held at room temperature. The samples were tested for appearance, purity (HPLC), total related substances (TRS), and XRPD. The only change observed in the photostability samples was a decrease in purity of 0.6% at the 1-week interval.
About 3 mg Polymorph Form A was weighed in glass vials and samples stored under light condition (5000 lx) for 1 week and 2 weeks, separately. Another 20 mg testing compound was weighed in glass vials and the samples stored under light condition for 1 week and 2 weeks, separately. The original compound was stored at −20° C. as the control. The physical appearance, assay, total related substances (TRS) and XRPD pattern were checked at the end of the 1st week and the 2nd week.

[3] = 25° C., Cycle 1, target 0.0 % P/Po
[4] = 25° C., Cycle 1, target 10.0 % P/Po
[5] = 25° C., Cycle 1, target 20.0 % P/Po
[6] = 25° C., Cycle 1, target 30.0 % P/Po
[7] = 25° C., Cycle 1, target 40.0 % P/Po
[8] = 25° C., Cycle 1, target 50.0 % P/Po
[9] = 25° C., Cycle 1, target 60.0 % P/Po
[10] = 25° C., Cycle 1, target 70.0 % P/Po
[11] = 25° C., Cycle 1, target 80.0 % P/Po
[12] = 25° C., Cycle 1, target 90.0 % P/Po
[13] = 5000 Lux, open container, 0 weeks
[14] = 5000 Lux, open container, 1 week
[15] = 5000 Lux, open container, 2 weeks

Structure (SMILES): Cc1cc(C)c(-c2ccc(NC(=O)[C@H](Cc3ccc(C(=O)NCCS(=O)(=O)[O-])cc3)c3ccc(-c4ccc(C(C)(C)C)cc4)cc3)cc2)c(C)c1.[Na+] [Polymorph Form A, Sodium (R)-2-(4-(2-(4′-(tert-butyl)-[1,1′-biphenyl]-4-yl)-3-oxo-3-((2′,4′,6′-trimethyl-[1,1′-biphenyl]-4-yl)amino)propyl)benzamido)ethane-1-sulfonate]
- Change in Mass (%)-ref, Desorption [1, 3]: 0.20%
- Change in Mass (%)-ref, Sorption [1, 3]: 0.00%
- Change in Mass (%)-ref, Desorption [1, 4]: 1.64%
- Change in Mass (%)-ref, Hysteresis [1, 4]: 0.29%
- Change in Mass (%)-ref, Sorption [1, 4]: 1.35%
- Change in Mass (%)-ref, Desorption [1, 5]: 2.73%
- Change in Mass (%)-ref, Hysteresis [1, 5]: 0.39%
- Change in Mass (%)-ref, Sorption [1, 5]: 2.34%
- Change in Mass (%)-ref, Desorption [1, 6]: 4.08%
- Change in Mass (%)-ref, Hysteresis [1, 6]: 0.50%
- Change in Mass (%)-ref, Sorption [1, 6]: 3.58%
- Change in Mass (%)-ref, Desorption [1, 7]: 5.48%
- Change in Mass (%)-ref, Hysteresis [1, 7]: 0.63%
- Change in Mass (%)-ref, Sorption [1, 7]: 4.85%
- Change in Mass (%)-ref, Desorption [1, 8]: 6.98%
- Change in Mass (%)-ref, Hysteresis [1, 8]: 0.87%
- Change in Mass (%)-ref, Sorption [1, 8]: 6.11%
- Change in Mass (%)-ref, Desorption [1, 9]: 8.08%
- Change in Mass (%)-ref, Hysteresis [1, 9]: 0.39%
- Change in Mass (%)-ref, Sorption [1, 9]: 7.69%
- Change in Mass (%)-ref, Desorption [1, 10]: 13.12%
- Change in Mass (%)-ref, Hysteresis [1, 10]: 3.90%
- Change in Mass (%)-ref, Sorption [1, 10]: 9.21%
- Change in Mass (%)-ref, Desorption [1, 11]: 16.12%
- Change in Mass (%)-ref, Hysteresis [1, 11]: 1.04%
- Change in Mass (%)-ref, Sorption [1, 11]: 15.09%
- Change in Mass (%)-ref, Desorption [1, 12]: 20.08%
- Change in Mass (%)-ref, Sorption [1, 12]: 20.08%
- Hygroscopicity classification ([1]; DVS, 0 to 90% RH, 25° C.): very hygroscopic
- XRPD after hygroscopicity test ([1]; after a cycle of humidity change): no change
- weight gain ([1]; from 0 to 90% RH, 25° C.): 20.08%
- Appearance [2, 13]: White powder
- Purity (area %) [2, 13]: 99.8 area %
- Total related substances (area %, w/w) [2, 13]: 0.25 area %, w/w
- Appearance [2, 14]: White powder
- Purity (area %) [2, 14]: 99.2 area %
- Total related substances (area %, w/w) [2, 14]: 0.25 area %, w/w
- XRPD [2, 14]: Same form
- Appearance [2, 15]: White powder
- Purity (area %) [2, 15]: 99.2 area %
- Total related substances (area %, w/w) [2, 15]: 0.25 area %, w/w
- XRPD [2, 15]: Same form
- stability under light condition (overall) ([2]; 5000 lux, 2 weeks): No significant changes; also recorded: No significant increase in TRS % or decrease in recovery %; also recorded: relatively stable
- decrease in purity ([2]; 5000 lux, room temperature, 1-week interval): 0.6%
- Appearance ([2]; light (5000 lx), 1 week): white powder
- TRS % ([2]; light (5000 lx), 1 week): 0.25%
- XRPD pattern ([2]; light (5000 lx), 1 week): Form A
- Appearance ([2]; light (5000 lx), 2 weeks): white powder
- TRS % ([2]; light (5000 lx), 2 weeks): 0.25%
- XRPD pattern ([2]; light (5000 lx), 2 weeks): Form A
- Appearance ([2]; −20° C., 0 day (control)): white powder
- TRS % ([2]; −20° C., 0 day (control)): 0.25%
- XRPD pattern ([2]; −20° C., 0 day (control)): Form A

Reference: patent publication US12208071B2, “Glucagon receptor antagonists” (LIGAND PHARMACEUTICALS INCORPORATED, priority 2018, dated 2025)
